Measured values published in patent US8198327B2, “Fatty acid amides and uses thereof” (Yissum Research Development Company of the Hebrew …, priority 2008, dated 2012).
Entries after “also recorded” stand apart in the source; their conditions may differ. Read-outs that look alike come from different tables or passages of the source.

Key:
[1] = test system: MC3T3 E1 osteoblastic cells; test: MC3T3 E1 osteoblastic cell assay (cell number / proliferation); format: cell-based
Text: FIGS. 1(A)-1(F) are graphical depictions of screening of fatty acid derivatives identified in brain for proliferative activity in MC3T3 E1 osteoblastic cells. (A), oleoyl-serine (HU-639); (B), palmitoyl-serine; (C), arachidonoyl-serine (HU-362); (D), arachidonoyl-ethanolamide; (E), palmitoyl-ethanolamide; (F), 2-arachidonoylglycerol. Data are mean±SE obtained in 3 culture wells per condition.
FIG. 9 represents methylated oleoyl-serine (HU-639) derivatives α-methyl oleoyl serine (HU-671) and 2-methyl-oleoyl serine (HU-681)) stimulation of MC3T3 E1 osteoblastic cell number at concentration 10- to 100-fold lower than HU-639. Data are mean±SE obtained in 3 culture wells per condition. *, ANOVA, p<0.05 vs. ligand-free control (Cntl).
(§1) Several lipid compounds present in the brain stimulated the proliferation of MC3T3 E1 osteoblast-like cells in vitro (FIG. 1). […] The HU-639 mitogenic effect was confirmed measuring BrdU incorporation in the MC3T3 E1 cells and in primary calvarial osteoblasts (FIG. 4A). […] Typical of some osteoblast mitogenic agents [Miguel et al, 2005], the dose-response curves representing oleoyl-serine (HU-639) activity in culture are bell shaped, with the peak stimulation of cell number followed by reversal of the effect to baseline levels (FIGS. 4A, 4B).
The oleoyl-serine derivatives α-methyl oleoyl serine (HU-671) and 2-methyl-oleoyl serine (HU-681) were tested in the MC3T3 E1 osteoblastic cell assay, HU-671 and HU-681 stimulated cell number with respective peak effects at 10^−12 M and 10^−13 M as compared to 10^−11 M of the parent HU-639 molecule (FIG. 9).

[2] = test system: ovariectomized (OVX) mice; test: Ovariectomy (OVX) mouse model of osteoporosis, microCT and histomorphometry of distal femoral metaphysis; format: in vivo
Protocol: FIG. 6 oleoyl-serine (HU-639) rescues ovariectomy (OVX)-induced trabecular bone loss in mouse distal femoral metaphysis. Mice were OVXed or sham-OVXed and left untreated for 6 weeks to allow for bone loss. Thereafter, OVXed mice were treated by i.p. administration of oleoyl-serine (HU-639), 5 mg/Kg/day for 6 weeks and subjected to qualitative and quantitative analysis by microcomputed tomography. BV/TV, trabecular bone volume density. VEH, ethanol/emulphor/saline solvent. Data are mean±SE obtained in 6-8 mice per condition.
VEH, ethanol/emulphore/saline solvent. Histomorphometric analysis based on vital labeling of newly formed bone by calcein. Data are mean±SE obtained in 6-8 mice per condition. *, ANOVA, p<0.05 vs. Sham-OVX.
VEH, ethanol/emulphore/saline solvent. Osteoclast counts were based on osteoclast specific staining with tartrate-resistant acid phosphatase. Data are mean±SE obtained in 6-8 mice per condition. *, ANOVA, p<0.05 vs. Sham-OVX and OVX/VEH.
Based on the in vitro screening, the in vivo skeletal activity of oleoyl-serine (HU-639) in an ovariectomy (removal of ovaries; OVX) mouse model, the most widely used animal model for osteoporosis, was analyzed. Using this experimental system for testing bone anabolic activity, OVXed mice are left untreated to allow for bone loss to occur, followed by a treatment period intended for reversal of the bone loss [Alexander et al, 2001]. […] To further elucidate the process leading to the oleoyl-serine (HU-639) rescue of OVX-induced bone loss, the same mice were subjected to an analysis of bone formation and resorption by computerized histomorphometry (HM).

MC3T3 E1 cells = test: BrdU incorporation in MC3T3 E1 cells; format: cell-based
Text: as §1

Erk1/2 phosphorylation [3] = test: Immunoblot analysis of Erk1/2 phosphorylation in preosteoclast-like RAW 264.7 cells; format: cell-based
Text: (§2) (A), number of intact osteoclasts with the use of oleoyl-serine (HU-639); (B), number of apoptotic osteoclasts; (C), representative photomicrograph of culture oleoyl-serine (HU-639)-free control culture; (D), representative photomicrograph of culture treated with 10^−10 M oleoyl-serine (HU-639); (E), immunoblot analysis of Erk1/2 phosphorylation in preosteoclast-like RAW 264.7 cells. (F), RT-PCR analysis of RANKL and OPG expression in bone marrow-derived primary stromal cells. Quantitative data are mean±SE obtained in 3 culture wells per condition. Arrows indicate, apoptotic osteoclasts; *, ANOVA, p<0.05 vs. oleoyl-serine (HU-639)-free control (Cntl).
(§3) This inhibition is likely to have a restraining effect on osteoclast survival [Kim et al, 2009].

osteoclasts = test: Osteoclast survival in ex vivo culture of bone marrow-derived monocytes with M-CSF and RANKL; format: cell-based, mouse; details: 4 days with M-CSF and RANKL
Text: as §2, §3

RANKL expression = test: RT-PCR analysis of RANKL expression in bone marrow-derived primary stromal cells; format: cell-based
Text: as §2, §3

Erk1/2 phosphorylation [4] = test: Erk1/2 phosphorylation in osteoblasts; format: cell-based
Text: (§4) FIGS. 4(A)-4(E) represents signaling of oleoyl-serine (HU-639) in osteoblasts. *, ANOVA, p<0.05 vs. oleoyl-serine (HU-639)-free control (Cntl).
as §1

[5] = test system: primary calvarial osteoblasts; test: BrdU incorporation in primary calvarial osteoblasts; format: cell-based
Text: as §1

osteoblasts = test: Blockade of oleoyl-serine (HU-639) mitogenic activity in osteoblasts; format: cell-based; details: MEK inhibitor, inhibition of Erk1/2 phosphorylation
Text: as §4, §1

## CCCCCCCC/C=C\CCCCCCCC(=O)NC(C)(CO)C(=O)O (racemic) [HU-671, N-oleoly α-methyl-DL-serine]
[1]
  concentration of peak effect on cell number: 10^−12 M

## CCCCCCCC/C=C\CCCCCCCC(=O)N[C@@H](CO)C(=O)O [HU-639, N-Oleoyl L-Serine]
[2]; comparison with literature [Alexander et al, 2001]
  reversal of bone loss compared with parathyroid hormone (1-34): greater than the reversal of bone volumetric density by parathyroid hormone (1-34)
[2]; distal femoral metaphyseal trabecular bone
  bone resorption, osteoclast counts (TRAP staining): decreasing of osteoclast number; also recorded: markedly inhibited bone resorption
[2]; histomorphometry, calcein labeling
  mineral appositional rate (MAR): stimulated mineral appositional rate
[2]; histomorphometry, compared to sham- and vehicle-treated OVXed controls
  overall trabecular bone formation: stimulation of trabecular bone formation; also recorded: stimulation of overall bone formation
[2]; vs vehicle treated OVXed controls (so in the source)
  difference in trabecular bone volume density (BV/TV) vs controls: statistically insignificant
[1]
  concentration of peak effect on cell number: 10^−11 M
  osteoblastic proliferation activity / potency: highest potency
[1]; at 10^−11 M concentration
  cell number: more than doubling cell number
[1]; listed as oleoyl serine
  osteoblastic proliferation activity / potency: considerably more potent
MC3T3 E1 cells; FIGS. 4A, 4B, peak stimulation of cell number followed by reversal to baseline
  shape of dose-response curves in culture: bell shaped
MC3T3 E1 cells; MC3T3 E1 cells
  mitogenic effect by BrdU incorporation: confirmed
Erk1/2 phosphorylation [3]
  Erk phosphorylation: reduced Erk phosphorylation, mainly p42
osteoclasts
  osteoclast apoptosis: stimulating osteoclast apoptosis
  osteoclast survival (number of intact osteoclasts): inhibition of osteoclast survival; also recorded: inhibits osteoclast survival
RANKL expression
  RANKL expression: inhibits RANKL expression
Erk1/2 phosphorylation [4]
  Erk1/2 phosphorylation: stimulates Erk1/2 phosphorylation
[5]
  mitogenic effect by BrdU incorporation: confirmed

## CCCCCCCC/C=C\CCCCCCC(C)C(=O)N[C@@H](CO)C(=O)O (stereo partly drawn) [HU-681, 2-Methyl Oleoyl-L-Serine]
[1]
  concentration of peak effect on cell number: 10^−13 M

## COc1cccc(-c2cc(=O)c3ccccc3o2)c1N [PD98059]
osteoblasts
  blockade of oleoyl-serine (HU-639) mitogenic activity: blocks the oleoyl-serine (HU-639) mitogenic activity dose-dependently

## CCCCC/C=C\C/C=C\C/C=C\C/C=C\CCCC(=O)NCCO [anandamide, arachidonoyl ethanolamide, reference compound]
[1]
  osteoblastic proliferation activity / potency: some osteoblastic proliferation activity

## CCCCC/C=C\C/C=C\C/C=C\C/C=C\CCCC(=O)N[C@@H](CO)C(=O)O [arachidonoyl serine, N-arachidonoyl-serine, reference compound]
[1]
  osteoblastic proliferation activity / potency: some osteoblastic proliferation activity

## CCCCCCCCCCCCCCCC(=O)NCCO [palmitoyl ethanolamide, reference compound]
[1]
  osteoblastic proliferation activity / potency: some osteoblastic proliferation activity
